The target of data set [1] is T1, HCV polymerase (NS5B570n-Con1) (Hepatitis C virus genotype 1b, UniProt Q9WMX2).
T1 construct: a 21 amino acid C-terminal deletion of full-length HCV polymerase; made in house; host or cells: E. coli BL21(DE3) pLysS, plasmid pET17b
Description: HCV NS5B RNA polymerase activity. The class given is biochemical, HCV Con1 strain. The method, then: The enzymatic activity of HCV polymerase (NS5B570n-Con1) was measured as the incorporation of radiolabeled nucleotide monophosphates into acid insoluble RNA products. Unincorporated radiolabeled substrate was removed by filtration and scintillant was added to the washed and dried filter plate containing radiolabeled RNA product. The amount of RNA product generated by NS5B570n-Con1 at the end of the reaction was directly proportional to the amount of light emitted by the scintillant.
The HCV polymerase used in the enzymatic activity assay is a 21 amino acid C-terminal deletion of full-length HCV polymerase derived from HCV Con1 strain, genotype 1b (GenBank accession number AJ242654) (NS5B570n-Con1). The NS5B570n-Con1 was sub-cloned downstream to the T7 promoter of the plasmid expression construct pET17b and transformed into E. coli strain BL21(DE3) pLysS for protein expression. A single colony was used to start an innoculum for a 10 L culture in LB media supplemented with 100 μg/mL ampicillin at 37° C. Protein expression was induced by the addition of 0.25 mM isopropyl-β-D-thiogalactopyranoside (IPTG) when the optical density of the culture at […] was 0.8. Induction of protein expression was carried out at 30° C. for 16 h after which the cells were harvested by centrifugation. NS5B570n-Con1 was purified to homogeneity using a three-column purification protocol including subsequent column chromatography on Ni-NTA, SP-Sepharose HP and Superdex 75 resins.
[…] TRK-412; specific activity: 30 to 60 Ci/mmol;), 1 μM each ATP, CTP, and GTP, 40 mM Tris-HCl pH 8.0, 40 mM NaCl, 4 mM DTT (dithiothreitol), 4 mM MgCl2, 5 μl of compound serial diluted in DMSO, and nuclease-free water to a final reaction volume of 50 μl. Enzymatic reactions in the presence of poly A RNA template (see section 0004) contained 20 nM Poly A:oligo(rU)16 premixed (see section 0004), 20 nM NS5B570n-Con1 enzyme, 1 μCi of tritiated UTP (Perkin Elmer catalog no. TRK-412; specific activity: 30 to 60 Ci/mmol), 40 mM Tris-HCl pH 8.0, 40 mM NaCl, 4 mM DTT (dithiothreitol), 4 mM MgCl2, 5 μl of compound serial diluted in DMSO, and nuclease-free water to a final reaction volume of 50 μl. Reaction mixtures were assembled in 96-well filter plates (cat #MADVN0B, Millipore Co.) and incubated for 2 h at 30° C. Reactions were stopped by addition of 10% final (v/v) trichloroacetic acid and incubated for 40 min at 4° C. Reactions were filtered, washed with 8 reaction volumes of 10% (v/v) trichloroacetic acetic acid, 4 reaction volumes of 70% (v/v) ethanol, air dried, and 25 μl of scintillant (Microscint 20, Perkin-Elmer) was added to each reaction well.
Two RNA templates were used to assay compounds described herein. The cIRES RNA template was 377 nucleotide long and consisted of a partial complementary sequence (36 nucleotides) of the core protein, followed by 341 nucleotide of the complementary sequence of the internal ribosome entry site. The poly A RNA template (GE Amersham catalog number 27-4110) was a homopolymeric RNA pre-annealed to a oligo(rU)16 primer at a molar ratio of 3-to-1 (primer-template).
The amount of light emitted from the scintillant was converted to counts per minute (CPM) on a Topcount® plate reader (Perkin-Elmer, Energy Range: Low, Efficiency Mode: Normal, Count Time: 1 min, Background Subtract: none, Cross talk reduction: Off).
Data was analyzed in Excel® (Microsoft) and ActivityBase® (Idbs®). The reaction in the absence of enzyme was used to determine the background signal, which was subtracted from the enzymatic reactions. […] All data was expressed as a percentage of the positive control. The compound concentration at which the enzyme-catalyzed rate of RNA synthesis was reduced by 50%

Data set [2] has as its system HCV replicon cells (2209-23), genotype 1b replicon. The data set is described as follows: HCV replicon assay (Renilla luciferase reporter). The class given is cell-based, HCV genotype 1b. As to conditions: Hepatitis C virus, 72 h; 2209-23 cells, three days incubation. (Replicon systems follow genome replication, usually without infectious particles.)
The next data set can be described thus: in vitro. As to conditions: human.
The mark [3] stands for this setting: NS5B pol inhibition IC50, cell values marked ^2, as in Example 32 except RNA template concentration 3 nM (footnote 3).
Where [4] appears, read: NS5B pol inhibition IC50, as in Example 32 (20 nM RNA template).

Consider 20 compounds from patent US8178547B2, “Heterocyclic antiviral compounds” (Roche Palo Alto LLC, priority 2008, dated 2012).

pIC50: −log10 of the molar value. Where only a bound is given, the exact number is not on record here.

As to `CC1(C)COc2c(-c3ccn[nH]c3=O)cc(/C=C/c3ccc(NS(C)(=O)=O)cc3)cc21` [Compound I-21, N-(4-{(E)-2-[3,3-Dimethyl-7-(3-oxo-2,3-dihydro-pyridazin-4-yl)-2,3-dihydro-benzofuran-5-yl]-vinyl}-phenyl)-methanesulfonamide], the melting point lay in the range of 255 to 257 °C. In data set [1] (setting [3]), this compound gave a pIC50 of 8.70. The same compound gave a negative logarithm of the IC50 (pIC50) in data set [2] of 6.95.

`COc1c(CCc2ccc(NS(C)(=O)=O)cc2)cc(-c2ncc[nH]c2=O)cc1C(C)(C)C` [Compound I-1, N-(4-{2-[3-tert-Butyl-2-methoxy-5-(3-oxo-3,4-dihydro-pyrazin-2-yl)-phenyl]-ethyl}-phenyl)-methanesulfonamide] had a melting point of 238 to 240 °C. Besides, the pIC50 in data set [1] (setting [4]) was 7.82. The pIC50 in data set [2] was 6.95. Further, the CC50 in “in vitro” turned out to be 24200 nM.

With `COc1c(/C=C/c2ccc(NS(C)(=O)=O)cc2)cc(-c2ccn[nH]c2=O)cc1C(C)(C)C` [Compound I-13, N-(4-{(E)-2-[3-tert-Butyl-2-methoxy-5-(3-oxo-2,3-dihydro-pyridazin-4-yl)-phenyl]-vinyl}-phenyl)-methanesulfonamide], the values for the pIC50 in data set [1] (setting [4]) and in data set [2] were 8.40 and 9.00, respectively.

`COc1c(/C=C/c2ccc(NS(C)(=O)=O)cc2C(=O)O)cc(-c2ccn[nH]c2=O)cc1C(C)(C)C` [Compound I-9, 2-{(E)-2-[3-tert-Butyl-2-methoxy-5-(3-oxo-2,3-dihydro-pyridazin-4-yl)-phenyl]-vinyl}-5-methanesulfonylamino-benzoic acid]: the pIC50 is 9.70 in data set [1] (setting [4]) and 7.15 in data set [2].

As for `COc1c(/C=C/c2ccc(NS(C)(=O)=O)cc2)cc(-c2cnc[nH]c2=O)cc1C(C)(C)C` [Compound I-22, N-(4-{(E)-2-[3-tert-Butyl-2-methoxy-5-(6-oxo-1,6-dihydro-pyrimidin-5-yl)-phenyl]-vinyl}-phenyl)-methanesulfonamide], the negative logarithm of the IC50 (pIC50) in data set [1] (setting [3]) was 8.70. Further, in “in vitro”, the CC50 came to 23200 nM.

Consider `COc1c(/C=C/c2ccc(NS(C)(=O)=O)cc2)cc(-c2cn(C)c(=O)[nH]c2=O)cc1C(C)(C)C` [Compound I-8, N-(4-{(E)-2-[3-tert-Butyl-2-methoxy-5-(1-methyl-2,4-dioxo-1,2,3,4-tetrahydro-pyrimidin-5-yl)-phenyl]-vinyl}-phenyl)-methanesulfonamide], for which the melting point is above 300 °C. In data set [1] (setting [4]), this compound had a negative-log IC50 (pIC50) of 8.89.

Take `COCc1cc(NS(C)(=O)=O)ccc1/C=C/c1cc(-c2c[nH]c(=O)[nH]c2=O)cc(C(C)(C)C)c1OC` [Compound I-40, N-(4-{(E)-2-[3-tert-Butyl-5-(2,4-dioxo-1,2,3,4-tetrahydro-pyrimidin-5-yl)-2-methoxy-phenyl]-vinyl}-3-methoxymethyl-phenyl)-methanesulfonamide]: the melting point is 172 to 175 °C. This compound also had a negative logarithm of the IC50 (pIC50) in data set [1] (setting [4]) of 8.55.

Regarding `COc1c(NC(=O)c2ccc(NS(C)(=O)=O)cc2)cc(-c2ncc[nH]c2=O)cc1C(C)(C)C` [Compound I-4, N-[3-tert-Butyl-2-methoxy-5-(3-oxo-3,4-dihydro-pyrazin-2-yl)-phenyl]-4-methanesulfonylamino-benzamide], the pIC50 in data set [1] (setting [4]) was 8.22; in data set [2], 6.46.

Consider `CC(C)(C)c1cc(/C=C/c2ccc(NS(C)(=O)=O)cc2)c(O)c(-c2ncc[nH]c2=O)c1` [Compound I-6, N-(4-{(E)-2-[5-tert-Butyl-2-hydroxy-3-(3-oxo-3,4-dihydro-pyrazin-2-yl)-phenyl]-vinyl}-phenyl)-methanesulfonamide], for which the melting point lay within 280 to 282 °C. Also, the pIC50 in data set [1] (setting [4]) is 6.34.

`COc1c(/C=C/c2ccc(NS(C)(=O)=O)cc2)cc(-c2ncc[nH]c2=O)cc1C1(C(F)F)CC1` [Compound I-31, N-(4-{(E)-2-[3-(1-Difluoromethyl-cyclopropyl)-2-methoxy-5-(3-oxo-3,4-dihydro-pyrazin-2-yl)-phenyl]-vinyl}-phenyl)-methanesulfonamide] came in with a melting point of 241 to 243 °C. The same compound had a pIC50 in data set [1] (setting [4]) of 9.52.

Compound `COc1c(NC(=O)c2ccc(N)cc2)cc(-c2ccn[nH]c2=O)cc1C(C)(C)C` [Compound I-19, 4-Amino-N-[3-tert-butyl-2-methoxy-5-(3-oxo-2,3-dihydro-pyridazin-4-yl)-phenyl]-benzamide] yielded a melting point of 174 to 176 °C. The pIC50 in data set [1] (setting [4]) was 7.82.

`COc1c(/C=C/c2ccccc2)cc(-c2ccn[nH]c2=O)cc1C(C)(C)C` [Compound I-14] registered a melting point of 100 to 102 °C. For the same compound, the negative-log IC50 (pIC50) in data set [1] (setting [4]) is 8.15.

Turning to `COc1c(NC(=O)c2ccc(NCC(F)(F)F)cc2)cc(-c2ccn[nH]c2=O)cc1C(C)(C)C` [Compound I-20, N-[3-tert-Butyl-2-methoxy-5-(3-oxo-2,3-dihydro-pyridazin-4-yl)-phenyl]-4-(2,2,2-trifluoro-ethylamino)-benzamide], the melting point is 250 to 252 °C. For the same compound, the negative-log IC50 (pIC50) in data set [1] (setting [4]) is 8.30. Further, in data set [1] (setting [3]), the pIC50 is 8.52.

In the case of `COc1c(/C=C/c2ccc(NS(C)(=O)=O)cc2)cc(-c2cnc(Cl)[nH]c2=O)cc1C(C)(C)C` [Compound I-32, N-(4-{(E)-2-[3-tert-Butyl-5-(2-chloro-6-oxo-1,6-dihydro-pyrimidin-5-yl)-2-methoxy-phenyl]-vinyl}-phenyl)-methanesulfonamide], the melting point was above 300 °C. Further, in data set [1] (setting [4]), the negative-log IC50 (pIC50) is 8.30.

`COC(=O)c1cc(NS(C)(=O)=O)ccc1/C=C/c1cc(-c2cnc(OCc3ccccc3)[nH]c2=O)cc(C(C)(C)C)c1OC` [Compound I-24]: the negative-log IC50 (pIC50) in data set [1] (setting [3]) is 7.96; in data set [2], 7.40. Also, the CC50 in the data set “in vitro” turned out to be 4700 nM.

`COc1c(/C=C/c2ccc(NS(C)(=O)=O)cc2)cc(-c2cc(C)n[nH]c2=O)cc1C(C)(C)C` [Compound I-17]: the melting point lay within 292 to 294 °C. Moreover, the pIC50 in data set [1] (setting [4]) was 8.00.

On to `CC1(C)COc2c(-c3ncc[nH]c3=O)cc(/C=C/c3ccc(NS(C)(=O)=O)cc3)cc21` [Compound I-23, N-(4-{(E)-2-[3,3-Dimethyl-7-(3-oxo-3,4-dihydro-pyrazin-2-yl)-2,3-dihydro-benzofuran-5-yl]-vinyl}-phenyl)-methanesulfonamide], for which the melting point lay within 302 to 304 °C. In data set [1] (setting [3]), the pIC50 was 7.72.

In turn, `COc1ccc(-c2ccn[nH]c2=O)cc1C(C)(C)C` [Compound I-16] displayed a melting point of 202 to 204 °C. The pIC50 in data set [1] (setting [4]) is 6.88.

As for `COc1c(/C=C/c2ccc(NS(C)(=O)=O)cc2)cc(-c2c[nH]c(=O)[nH]c2=O)cc1C1(C(F)F)CC1` [Compound I-30, N-(4-{(E)-2-[3-(1-Difluoromethyl-cyclopropyl)-5-(2,4-dioxo-1,2,3,4-tetrahydro-pyrimidin-5-yl)-2-methoxy-phenyl]-vinyl}-phenyl)-methanesulfonamide], the melting point lay in the range of 292 to 295 °C. The compound also had a pIC50 in data set [1] (setting [4]) of 9.52.

As for `CC(C)(C)c1cc(/C=C/c2ccc(NS(C)(=O)=O)cc2)cc(-c2ncc[nH]c2=O)c1` [Compound I-10], the melting point lay in the range of 283 to 285 °C. Besides, in data set [1] (setting [4]), the negative-log IC50 (pIC50) is 8.15.

As a reminder, the pIC50 is the negative decadic logarithm of the IC50, by convention in mol/L. Read a low pIC50 as a high IC50. As a reminder, the melting point is the temperature, or range, at which the solid turns liquid.
